The values below come from patent publication US20040002450A1, “Y17 - isolated molecules comprising epitopes containing sulfated moieties, antibodies to such epitopes, and uses thereof” (priority 2000, published 2004).

Non-standard residues stand in square brackets, D forms with d. No end group written: not given here. sY = N[C@@H](Cc1ccc(OS(=O)(=O)O)cc1)C(=O)O

For experiment [1], the system named is KG-1 cells. Nature of the experiment: AML KG-1 model in SCID/NOD mice. It is filed as in vivo. On the procedure:
The in vivo mouse model for human AML uses SCID/NOD mice (Jackson Laboratories) inoculated with KG-1 cells derived from a human AML cell line.
In a first experiment, NOD/SCID mice were pretreated with 100 mg/kg CYTOXAN®. Four days post CYTOXANT injection, KG-1 cells were injected intravenously into the tail vein of six groups of mice. (Table N, Groups 2 and 5-9). One group of mice (Table N, Group 1) was injected with PBS alone (control).
Beginning 19 days post KG-1 injection mice were treated with: CONY1, Doxorubicin, CONY1-Doxorubicin conjugate, or Mylotarg®. (Mylotarg® is a monoclonal antibody (anti CD33) conjugated chemically to calcheamicin recently approved by the FDA for treatment of AML patients age 60 and over in a first relapse.) Mice were treated once or three times per week for three weeks. One group (group 2) of KG-1 inoculated mice Were left untreated. (Table N). Two other groups of mice (groups 3 and 4) were injected with KG-1 cells that were previously incubated with CONY1 or 181-scFv (a negative, non-specific control antibody) in serum free RPMI containing 1% BSA at 4° C. for 1 h. The antibodies were used at a concentration of 0.25 mg scFv/10^8 cells (75 μg/mouse). Before injection into the mice the preincubated KG-1 cells were washed are resuspended in RPMI. The KG-1 cells in RPMI were inoculated into mice at a concentration of 75 μg scFv/0.2 ml RPMI per mouse. Group 3 mice were inoculated with KG-1+CONY1, and group 4 mice were inoculated with KG-1+181-scFv. (Table N). […]
Mice were sacrificed from 60 to 65 days post cell injection. Bone marrow and blood samples were analyzed by flow cytometry using mouse anti human CD34-FITC (IQP 144F) (or anti CD44-FITC (MCA89F, Serotec)) and Y1-Biotin/SAV-PE. […]
An additional experiment was performed in which SCID-NOD mice were i.v. injected with 3×10^4 MOLT-4 cells/mouse 5 days post treatment with cyclophosphamide. […] Bone marrow was extracted and analyzed by FACS analysis using a commercially available antiCD44 antibody for the detection of MOLT-4 cells in the mice bone marrow cell population.

Experiment [2] has as its system Y1 binding to purified glycocalicin. The experiment can be described thus: ELISA: effect of synthetic GPIbα peptides on Y1 binding to purified glycocalicin. Details: species or system human. Conditions: 0.25 μg/well Y1. On the procedure:
ELISA assays were developed to evaluate the effect of the GPIb derived synthetic peptides on the binding of Y1 to purified glycocalicin. In addition, FACS analysis using washed platelets was carried out. To evaluate the importance of sulfated tyrosine within the Y1 binding site of GPIb, a competitive binding FACS analysis was used. Y1-scFv at a concentration of 1 μg was preincubated with different peptides at concentrations of 2.5 and 200 μM. After a preincubation for 30 minutes at room temperature the mixture was added to a tube containing ˜10^7 washed platelets and the binding of Y1 to the washed platelets was assessed using polyclonal rabbit anti-scFv-PE. The inhibitory effect of the peptides compared to control binding (Y1 alone) was evaluated by measuring the residual binding of Y1 to washed platelets. The peptides and the results are described in Table 1 and are similar to results that were observed using the same peptides in an ELISA assay (Table B). In both assays, a control level of Y1 binding was determined, as follows. A polystyrene microtiter maxisorb plate was coated with (a) purified glycocalicin or (b) washed platelets. […] The plate was then incubated with rabbit anti-scFv followed by addition of anti rabbit —HRP (horse radish peroxidase) and HRP substrate. The level of anti rabbit —HRP binding was measured by the intensity of the color produced, and the level of anti rabbit —HRP binding correlates with the level of binding of anti Y1-scFv and the level of binding of Y1. The optical density was measured at A405. Each sample was assayed in duplicate, and the average was calculated.
The effect of synthetic GPIbα peptides on Y1 binding to purified glycocalicin was evaluated by mixing varying concentrations of the peptides with a constant amount of Y1. After a preincubation for 30 minutes at room temperature, the mixture was added to a polystyrene microtiter maxisorb plate coated with purified glycocalicin, as described for evaluation of Y1 binding in the absence of peptides. The inhibitory effect of the peptides was evaluated by measuring the residual binding of Y1 to glycocalicin using rabbit anti Y1scFv and anti rabbit —HRP antibodies, as described for evaluation of Y1 binding in the absence of peptides. This study was performed with four peptides representing various subsets of the sequence 268 to 285 and a control peptide. Each peptide was tested at different concentrations: 200 μM, 25 μM, 2.5 μM, and 0.5 μM.
For orientation: In an ELISA, binding on a coated surface is turned into a signal by an enzyme label.

For experiment [3], the system named is Y1 binding to washed platelets. The experiment can be described thus: Comparative FACS: effect of synthetic GPIbα peptides on Y1 binding to washed platelets. Details: species or system human. On the procedure:
ELISA assays were developed to evaluate the effect of the GPIb derived synthetic peptides on the binding of Y1 to purified glycocalicin. In addition, FACS analysis using washed platelets was carried out. To evaluate the importance of sulfated tyrosine within the Y1 binding site of GPIb, a competitive binding FACS analysis was used. Y1-scFv at a concentration of 1 μg was preincubated with different peptides at concentrations of 2.5 and 200 μM. After a preincubation for 30 minutes at room temperature the mixture was added to a tube containing ˜10^7 washed platelets and the binding of Y1 to the washed platelets was assessed using polyclonal rabbit anti-scFv-PE. The inhibitory effect of the peptides compared to control binding (Y1 alone) was evaluated by measuring the residual binding of Y1 to washed platelets. The peptides and the results are described in Table 1 and are similar to results that were observed using the same peptides in an ELISA assay (Table B). In both assays, a control level of Y1 binding was determined, as follows. A polystyrene microtiter maxisorb plate was coated with (a) purified glycocalicin or (b) washed platelets. After extensive washing, 0.5 μg/well of Y1 was added. The plate was then incubated with rabbit anti-scFv followed by addition of anti rabbit —HRP (horse radish peroxidase) and HRP substrate. The level of anti rabbit —HRP binding was measured by the intensity of the color produced, and the level of anti rabbit —HRP binding correlates with the level of binding of anti Y1-scFv and the level of binding of Y1. The optical density was measured at A405. Each sample was assayed in duplicate, and the average was calculated.

Experiment [4] concerns scFv Y1 binding to glycocalicin. Nature of the experiment: Competitive binding ELISA of sulfated peptides (scFv Y1 binding to immobilized glycocalicin). Details: species or system human. Conditions: peptide 1, 10 and 100 μM, preincubated 10 minutes with scFv Y1. On the procedure: A competitive binding ELISA assay was used to assess the importance of the presence and position of sulfated tyrosines to the binding of peptides to Y1.
Glycocalicin was immobilized on a Maxisorb plate. scFv Y1 was preincubated with a peptide of interest for 10 minutes at three different concentrations (1, 10 and 100 μM) in order to observe a dose response. (Table 12). After preincubation, the mixture (Y1+peptide) was added to the plate, and binding of scFv Y1 was assessed using polyclonal rabbit anti-VL, which recognizes the VL chain of scFv Y1, followed by anti-rabbit-HRP. In mixtures in which the peptide bound to scFv Y1, a decrease in the binding of scFv Y1 to glycocalicin compared to control binding was observed.

In the case of `COc1cccc2c1C(=O)c1c(O)c3c(c(O)c1C2=O)C[C@@](O)(C(=O)CO)C[C@@H]3O[C@H]1C[C@H](N)[C@H](O)[C@H](C)O1` [Doxorubicin], the “percentage of KG-1 cells in bone marrow compared to untreated group 2 (in words)” value in experiment [1] (0.1 mg/kg free Doxorubicin, 3 times per week (group 6)) is “statistically significant (p<0.05) lower percentage”.

Regarding “GDEGDTDLY*DY*Y*P (GDEGDTDL[sY]D[sY][sY]P) [P-3-S, residues 268-280 of GPIbα, Y* sulfated tyrosine]”, the entries for the “Residual Binding of Y1 (% of baseline)” value in experiment [2] (peptide 0.5 μM), in experiment [2] (peptide 2.5 μM) and in experiment [2] (peptide 25 μM) were 80 % of baseline, 67 % of baseline and 21 % of baseline, respectively. The “Residual Binding of Y1 (% of baseline) (Geo Mean)” value is recorded as 82 % of baseline in experiment [3] (peptide 2.5 μM) and 26 % of baseline in experiment [3] (peptide 200 μM).

For “TDLY*DY*Y*PEEDTE (TDL[sY]D[sY][sY]PEEDTE) [P-2-S, residues 273-285 of GPIbα, Y* sulfated tyrosine]”, the “Residual Binding of Y1 (% of baseline)” value in experiment [2] (peptide 0.5 μM) is 78 % of baseline; in experiment [2] (peptide 2.5 μM) it was 52 % of baseline; in experiment [2] (peptide 25 μM), 15 % of baseline. Also, the “Residual Binding of Y1 (% of baseline) (Geo Mean)” value in experiment [3] (peptide 2.5 μM) is on record as 61 % of baseline; in experiment [3] (peptide 200 μM) it was 7 % of baseline.

In the case of “GDEGDTDLY*DY*Y*PEEDTE (GDEGDTDL[sY]D[sY][sY]PEEDTE) [P-1-S, residues 268-285 of GPIbα, Y* sulfated tyrosine]”, the “Residual Binding of Y1 (% of baseline)” value in experiment [2] (peptide 0.5 μM) is given as 89 % of baseline; in experiment [2] (peptide 2.5 μM), 62 % of baseline; in experiment [2] (peptide 25 μM), 25 % of baseline; in experiment [2] (peptide 200 μM) it was 0 % of baseline. Besides, the “Residual Binding of Y1 (% of baseline) (Geo Mean)” value in experiment [3] (peptide 2.5 μM) is reported as 41 % of baseline; in experiment [3] (peptide 200 μM), 5 % of baseline. The “inhibition of Y1 binding to glycocalicin (in words)” value in experiment [4] is given as “did inhibit”.

On to “REEGRQHFFLLEGRSSYS [negative control peptide, reference compound]”, for which the “Residual Binding of Y1 (% of baseline)” value is 121 % of baseline in experiment [2] (peptide 0.5 μM), 100 % of baseline in experiment [2] (peptide 2.5 μM), 89 % of baseline in experiment [2] (peptide 25 μM) and 85 % of baseline in experiment [2] (peptide 200 μM). Moreover, the results for the “Residual Binding of Y1 (% of baseline) (Geo Mean)” value in experiment [3] (peptide 2.5 μM) and in experiment [3] (peptide 200 μM) were 96 % of baseline and 119 % of baseline, respectively.

On to “GDEGDTDLYDYYPEEDTE [P-1, residues 268-285 of GPIbα, non-sulfated]”, for which the “Residual Binding of Y1 (% of baseline)” value in experiment [2] (peptide 0.5 μM) was 88 % of baseline; in experiment [2] (peptide 2.5 μM), 94 % of baseline; in experiment [2] (peptide 25 μM) it was 71 % of baseline; in experiment [2] (peptide 200 μM), 61 % of baseline. In addition, the figures for the “Residual Binding of Y1 (% of baseline) (Geo Mean)” value in experiment [3] (peptide 2.5 μM) and in experiment [3] (peptide 200 μM) were 106 % of baseline and 87 % of baseline, respectively.

Regarding “Mylotarg: monoclonal antibody (anti CD33) conjugated chemically to calcheamicin, FDA approved for AML”, in experiment [1] (0.2 mg/kg, 1 time per week (group 9)), the “KG-1 cells in bone marrow (in words)” value is “free of KG 1 cells”. Besides, the “development of the malignancy / prevalence of bone marrow cancer (in words)” value in experiment [1] (additional experiment, day 60, CONY1 scFv 75 μg/mouse three times/week, Mylotarg 7 μg/mouse once a week) was “completely inhibited”.
